Biological target: recombinant Human Phosphodiesterase B2 (PDE4B2) (Homo sapiens, UniProt Q07343)
Experiment: Human Phosphodiesterase B2 Radiometric Assay (yttrium silicate SPA beads, [3H]cyclic AMP)
Assay type: biochemical
Details: recombinant human PDE4B2, radiometric SPA assay, 8 nM [3H]cyclic AMP; read-out: PDE4B2 pIC50 (converted)
Summary of the method: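 Read-out is scintillation proximity: yttrium silicate beads (with 18 mM ZnSO4, added to stop the reaction) bind 5′AMP formed from 8 nM [3H]cAMP over 20 min. Beforehand, compound and 0.1 mg/mL enzyme were preincubated 30 min at 30 °C in pH 7.5 HEPES buffer with MgCl2, EGTA and Brij 35; pIC50 values were curve-fitted.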

Sequence of recombinant Human Phosphodiesterase B2 (PDE4B2) (Q07343 1-564 isoform Q07343-2): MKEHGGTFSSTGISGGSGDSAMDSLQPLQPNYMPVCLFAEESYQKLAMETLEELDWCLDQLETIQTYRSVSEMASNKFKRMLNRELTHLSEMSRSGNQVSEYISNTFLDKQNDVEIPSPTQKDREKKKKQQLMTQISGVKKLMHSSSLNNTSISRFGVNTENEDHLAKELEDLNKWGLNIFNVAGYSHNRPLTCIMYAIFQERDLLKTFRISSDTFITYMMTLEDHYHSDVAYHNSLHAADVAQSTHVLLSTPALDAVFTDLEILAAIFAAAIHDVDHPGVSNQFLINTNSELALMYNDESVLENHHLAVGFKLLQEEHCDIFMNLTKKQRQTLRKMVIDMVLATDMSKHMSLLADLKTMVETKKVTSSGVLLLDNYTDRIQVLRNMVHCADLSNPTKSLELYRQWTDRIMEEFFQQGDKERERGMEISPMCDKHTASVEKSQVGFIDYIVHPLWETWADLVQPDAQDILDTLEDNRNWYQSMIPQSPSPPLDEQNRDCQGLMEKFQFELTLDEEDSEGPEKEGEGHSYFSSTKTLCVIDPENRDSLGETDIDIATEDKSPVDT

Row | SMILES | IC50 [nM]
1 | O=C(N[C@H]1CC[C@@H](n2c(=O)c3cc(F)cnc3n(-c3cccc(-c4ccc(CN5CC[C@@H](O)C5)cc4)c3)c2=O)CC1)c1cn2cc(F)ccc2n1 [Example 56, 6-fluoro-N-{cis-4-[6-fluoro-1-(4′-{[(3R)-3-hydroxypyrrolidin-1-yl]methyl}biphenyl-3-yl)-2,4-dioxo-1,4-dihydropyrido[2,3-d]pyrimidin-3(2H)-yl]cyclohexyl}imidazo[1,2-a]pyridine-2-carboxamide] | 0.0251
2 | C[C@@H]1CN(Cc2ccc(-c3cccc(-n4c(=O)n([C@H]5CC[C@@H](NC(=O)c6cc7ccccc7cn6)CC5)c(=O)c5cc(F)cnc54)c3)cc2)C[C@H](C)N1 [Example 304, N-{cis-4-[1-(4′-{[(3R,5S)-3,5-dimethylpiperazin-1-yl]methyl}biphenyl-3-yl)-6-fluoro-2,4-dioxo-1,4-dihydropyrido[2,3-d]pyrimidin-3(2H)-yl]cyclohexyl} isoquinoline-3-carboxamide] | 0.0501
3 | Cc1cc(C(=O)N[C@H]2CC[C@@H](n3c(=O)c4cc(F)cnc4n(-c4cccc(-c5ccc(CN6CCN(c7ccccn7)CC6)cc5)c4)c3=O)CC2)nn1C [Example 214, N-{cis-4-[6-fluoro-2,4-dioxo-1-{4′-[(4-pyridin-2-ylpiperazin-1-yl)methyl]biphenyl-3-yl}-1,4-dihydropyrido[2,3-d]pyrimidin-3(2H)-yl]cyclohexyl}-1,5-dimethyl-1H-pyrazole-3-carboxamide] | 0.0251
4 | CCCCc1ccc(C(=O)N[C@H]2CC[C@@H](n3c(=O)c4cc(F)cnc4n(-c4cccc(-c5ccc(CN6CCCNCC6)cc5)c4)c3=O)CC2)nc1 [Example 351, 5-butyl-N-{cis-4-[1-[4′-(1,4-diazepan-1-ylmethyl)biphenyl-3-yl]-6-fluoro-2,4-dioxo-1,4-dihydropyrido[2,3-d]pyrimidin-3(2H)-yl]cyclohexyl}pyridine-2-carboxamide] | 0.0316
5 | CN(Cc1cc(O)ccc1-c1cccc(-n2c(=O)n([C@H]3CC[C@@H](NCc4cn5cc(F)ccc5n4)CC3)c(=O)c3cc(F)cnc32)c1)CC1CC1 [Example 325] | 2
6 | O=C(CN1CCNCC1)N[C@H]1CC[C@@H](n2c(=O)c3cc(F)cnc3n(-c3cccc(-c4ccccc4)c3)c2=O)CC1 [Example 106, N-[cis-4-(1-biphenyl-3-yl-6-fluoro-2,4-dioxo-1,4-dihydropyrido[2,3-d]pyrimidin-3(2H)-yl)cyclohexyl]-2-piperazin-1-ylacetamide] | 3.16
7 | COCCN(C)Cc1ccc(-c2cccc(-n3c(=O)n([C@H]4CC[C@@H](NC(=O)c5cc(C)n(C)n5)CC4)c(=O)c4cc(F)cnc43)c2)cc1 [Example 217, N-{cis-4-[6-fluoro-1-(4′-{[(2-methoxyethyl)(methyl)amino]methyl}biphenyl-3-yl)-2,4-dioxo-1,4-dihydropyrido[2,3-d]pyrimidin-3(2H)-yl]cyclohexyl}-1,5-dimethyl-1H-pyrazole-3-carboxamide] | 0.0316
8 | O=C(N[C@H]1CC[C@@H](n2c(=O)c3cc(F)cnc3n(-c3cccc(-c4ccc(CN5CCCNCC5)cc4)c3)c2=O)CC1)c1ccc2ccccc2n1 [Example 350, N-{cis-4-[1-[4′-(1,4-diazepan-1-ylmethyl)biphenyl-3-yl]-6-fluoro-2,4-dioxo-1,4-dihydropyrido[2,3-d]pyrimidin-3(2H)-yl]cyclohexyl} quinoline-2-carboxamide] | 0.0158
9 | CN(Cc1cc(O)ccc1-c1cccc(-n2c(=O)n([C@H]3CC[C@@H](NCc4cn5cc(F)ccc5n4)CC3)c(=O)c3cc(F)cnc32)c1)CC1(O)CC1 [Example 322, 6-fluoro-3-(cis-4-{[(6-fluoroimidazo[1,2-c]pyridin-2-yl)methyl]amino}cyclohexyl)-1-(4′-hydroxy-2′-{[[(1-hydroxycyclopropyl)methyl](methyl)amino]methyl}biphenyl-3-yl)pyrido[2,3-d]pyrimidine-2,4(1H,3H)-dione] | 0.251
10 | O=C(N[C@H]1CC[C@@H](n2c(=O)c3cc(F)cnc3n(-c3cccc(-c4ccc(CN5CCNCC5)cc4Br)c3)c2=O)CC1)c1cn2cc(F)ccc2n1 [Example 229, N-{cis-4-[1-[2′-Bromo-4′-(piperazin-1-ylmethyl)biphenyl-3-yl]-6-fluoro-2,4-dioxo-1,4-dihydropyrido[2,3-d]pyrimidin-3(2H)-yl]cyclohexyl}-6-fluoroimidazo[1,2-a]pyridine-2-carboxamide] | 0.00631
11 | CN(C)CCOc1cc(F)ccc1-c1cccc(-n2c(=O)n([C@H]3CC[C@@H](N(CCN(C)C)C(=O)c4cn5cc(F)ccc5n4)CC3)c(=O)c3cc(F)cnc32)c1 [Example 83, N-{cis-4-[1-{2′-[2-(dimethylamino)ethoxy]-4′-fluorobiphenyl-3-yl}-6-fluoro-2,4-dioxo-1,4-dihydropyrido[2,3-d]pyrimidin-3(2H)-yl]cyclohexyl}-N-[2-(dimethylamino)ethyl]-6-fluoroimidazo[1,2-a]pyridine-2-carboxamide] | 6.31
12 | Cc1nc(C(=O)N[C@H]2CC[C@@H](n3c(=O)c4cc(F)cnc4n(-c4cccc(-c5ccc(CN6CCCN(C)CC6)cc5)c4)c3=O)CC2)cs1 [Example 309, N-{cis-4-[6-fluoro-1-{4′-[(4-methyl-1,4-diazepan-1-yl)methyl]biphenyl-3-yl}-2,4-dioxo-1,4-dihydropyrido[2,3-d]pyrimidin-3(2H)-yl]cyclohexyl}-2-methyl-1,3-thiazole-4-carboxamide] | 0.1
13 | O=c1c2cc(F)cnc2n(-c2cccc(-c3ccc(CN4CCOCC4)cc3)c2)c(=O)n1[C@H]1CC[C@@H](NCc2cn3cc(F)ccc3n2)CC1 [Example 76, 6-fluoro-3-(cis-4-{[(6-fluoroimidazo[1,2-a]pyridin-2-yl)methyl]amino}cyclohexyl)-1-[4′-(morpholin-4-ylmethyl)biphenyl-3-yl]pyrido[2,3-d]pyrimidine-2,4(1H,3H)-dione ditrifluoroacetic acid] | 0.316
14 | CN(Cc1ccc(-c2cccc(-n3c(=O)n([C@H]4CC[C@@H](NC(=O)c5cn6cc(F)ccc6n5)CC4)c(=O)c4cc(F)cnc43)c2)cc1)C(C)(C)C [Example 57, N-{cis-4-[1-(4′-{[tert-butyl(methyl)amino]methyl}biphenyl-3-yl)-6-fluoro-2,4-dioxo-1,4-dihydropyrido[2,3-d]pyrimidin-3(2H)-yl]cyclohexyl}-6-fluoroimidazo[1,2-a]pyridine-2-carboxamide] | 0.1
15 | O=c1c2cc(F)cnc2n(-c2cccc(-c3ccc(O)cc3CN3CC[C@H](O)C3)c2)c(=O)n1[C@H]1CC[C@@H](NCc2cn3cc(F)ccc3n2)CC1 [Example 331, 6-fluoro-3-(cis-4-{[(6-fluoroimidazo[1,2-a]pyridin-2-yl)methyl]amino}cyclohexyl)-1-(4′-hydroxy-2′-{[(3S)-3-hydroxypyrrolidin-1-yl]methyl}biphenyl-3-yl)pyrido[2,3-d]pyrimidine-2,4(1H,3H)-dione] | 0.398
16 | CCN1CCN(Cc2ccc(-c3cccc(-n4c(=O)n([C@H]5CC[C@@H](NC(=O)C6(N(C)C)CC6)CC5)c(=O)c5cc(F)cnc54)c3)cc2)CC1 [Example 130, 1-(dimethylamino)-N-{cis-4-[1-{4′-[(4-ethylpiperazin-1-yl)methyl]biphenyl-3-yl}-6-fluoro-2,4-dioxo-1,4-dihydropyrido[2,3-d]pyrimidin-3(2H)-yl]cyclohexyl}cyclopropane carboxamide] | 0.0251
